Assay results: ChEMBL document CHEMBL4002573, “New insights into the SAR and drug combination synergy of 2-(quinolin-4-yloxy)acetamides against Mycobacterium tuberculosis” (Eur J Med Chem, 2017)
In brackets after ≈: the same amount, converted by molar mass.

Tests used:
Cytochrome P450 2D6 = Cytochrome P450 2D6 (Homo sapiens, UniProt P10635); test: Inhibition of CYP2D6 in human liver microsomes using dextromethorphan as substrate by HPLC-MS/MS method; type: ADME
[1] = test system: Mycobacterium tuberculosis; type: functional, H37Rv
[2] = Thermodynamic solubility of the compound in 0.1N HCl at pH 1.5 after 24 hrs by HPLC method; type: physicochemical; conditions: read-out: Therm_solubility
[3] = test system: Mycobacterium tuberculosis; type: functional; conditions: H37Rv, 168 h
[4] = Cytotoxicity against mouse RAW264.7 cells assessed as viability at 10 uM after 72 hrs by MTT assay relative to control; type: cell-based; conditions: read-out: Activity
[5] = test system: Mycobacterium tuberculosis; test: Potency index, ratio of isoniazid MIC to test compound MIC for Mycobacterium tuberculosis H37Rv; type: functional
[6] = test system: Mycobacterium tuberculosis; type: functional; conditions: H37Rv, 168 h; remark: listed apart in the source
Cytochrome P450 2C19 = Cytochrome P450 2C19 (Homo sapiens, UniProt P33261); test: Inhibition of CYP2C19 in human liver microsomes using S-(+)-mephenytoin as substrate by HPLC-MS/MS method; type: ADME
Chain of Cytochrome P450 2C19 (P33261 whole entry): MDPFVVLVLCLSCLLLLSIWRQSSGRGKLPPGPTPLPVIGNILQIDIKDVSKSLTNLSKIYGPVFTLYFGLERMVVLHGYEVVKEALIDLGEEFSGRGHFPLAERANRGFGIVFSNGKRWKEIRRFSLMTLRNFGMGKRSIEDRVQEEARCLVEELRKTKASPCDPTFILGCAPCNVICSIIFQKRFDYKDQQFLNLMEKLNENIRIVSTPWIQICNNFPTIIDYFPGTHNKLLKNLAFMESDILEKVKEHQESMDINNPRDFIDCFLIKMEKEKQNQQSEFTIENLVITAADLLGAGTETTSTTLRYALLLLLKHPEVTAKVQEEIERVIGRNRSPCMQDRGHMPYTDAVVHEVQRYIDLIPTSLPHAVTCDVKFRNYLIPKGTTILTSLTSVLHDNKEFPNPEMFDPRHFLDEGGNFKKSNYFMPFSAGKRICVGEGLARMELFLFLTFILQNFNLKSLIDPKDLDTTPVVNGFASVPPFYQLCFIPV

[7] = Cytotoxicity against mouse N9 cells assessed as viability at 10 uM after 72 hrs by MTT assay relative to control; type: cell-based; conditions: read-out: Activity
Cytochrome P450 2E1 = Cytochrome P450 2E1 (Homo sapiens, UniProt P05181); test: Inhibition of CYP2E1 in human liver microsomes using chlorzoxazone as substrate by HPLC-MS/MS method; type: ADME
Chain of Cytochrome P450 2E1 (P05181 whole entry): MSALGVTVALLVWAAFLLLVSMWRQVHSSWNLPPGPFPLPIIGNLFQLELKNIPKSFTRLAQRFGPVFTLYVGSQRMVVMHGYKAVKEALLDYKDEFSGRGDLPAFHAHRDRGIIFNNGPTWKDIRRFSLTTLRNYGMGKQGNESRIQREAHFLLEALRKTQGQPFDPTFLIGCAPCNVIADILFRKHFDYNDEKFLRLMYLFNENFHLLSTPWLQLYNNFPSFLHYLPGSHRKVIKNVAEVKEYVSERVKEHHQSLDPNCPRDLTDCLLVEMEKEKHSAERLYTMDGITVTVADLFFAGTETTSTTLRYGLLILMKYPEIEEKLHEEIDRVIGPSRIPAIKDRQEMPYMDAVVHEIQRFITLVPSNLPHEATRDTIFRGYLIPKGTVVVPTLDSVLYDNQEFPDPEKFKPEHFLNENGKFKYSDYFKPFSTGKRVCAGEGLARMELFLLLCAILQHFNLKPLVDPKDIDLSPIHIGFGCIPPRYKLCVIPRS

[8] = test system: Mycobacterium tuberculosis; test: microbe, parasite or virus in culture; conditions: H37Rv, 168 h
Description: Antimycobacterial activity against Mycobacterium tuberculosis H37Rv after 7 days by resazurin reduction microplate assay

Cytochrome P450 1A2 = molecular target: T1, Cytochrome P450 1A2 (Homo sapiens, UniProt P05177); test: Inhibition of CYP1A2 in human liver microsomes using phenacetin as substrate by HPLC-MS/MS method; type: ADME
T1 sequence (P05177 whole entry): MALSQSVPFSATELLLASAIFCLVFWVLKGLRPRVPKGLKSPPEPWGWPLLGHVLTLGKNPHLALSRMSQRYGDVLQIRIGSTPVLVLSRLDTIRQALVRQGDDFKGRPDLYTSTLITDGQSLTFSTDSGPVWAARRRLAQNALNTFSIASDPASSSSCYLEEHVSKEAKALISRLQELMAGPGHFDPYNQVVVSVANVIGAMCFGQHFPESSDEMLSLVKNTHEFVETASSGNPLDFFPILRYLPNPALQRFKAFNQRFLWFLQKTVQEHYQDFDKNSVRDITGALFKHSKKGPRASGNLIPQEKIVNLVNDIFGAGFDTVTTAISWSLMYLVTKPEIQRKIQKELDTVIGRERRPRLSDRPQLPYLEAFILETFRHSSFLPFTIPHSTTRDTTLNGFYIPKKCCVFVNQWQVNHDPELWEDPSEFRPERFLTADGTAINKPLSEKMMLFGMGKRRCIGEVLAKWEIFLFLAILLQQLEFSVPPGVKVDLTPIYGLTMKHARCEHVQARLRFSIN

[9] = Intrinsic clearance in human liver S9 fraction at 2 uM by HPLC-MS/MS analysis; type: ADME, tissue-based
[10] = Cytotoxicity against human HaCaT cells assessed as viability at 10 uM after 72 hrs by MTT assay relative to control; type: cell-based; conditions: read-out: Activity
[11] = test system: Mycobacterium tuberculosis; test: microbe, parasite or virus in culture; conditions: CDCT-4 (1105/09), 168 h
Description: Antimycobacterial activity against Mycobacterium tuberculosis CDCT-4 (1105/09) clinical isolate after 7 days by resazurin reduction microplate assay

[12] = Cytotoxicity against African green monkey Vero cells assessed as viability at 10 uM after 72 hrs by MTT assay relative to control; type: cell-based; conditions: chlorocebus sabaeus, read-out: Activity
Cytochrome P450 2C9 = Cytochrome P450 2C9 (Homo sapiens, UniProt P11712); test: Inhibition of CYP2C9 in human liver microsomes using tolbutamide as substrate by HPLC-MS/MS method; type: ADME
Chain of Cytochrome P450 2C9 (P11712 whole entry): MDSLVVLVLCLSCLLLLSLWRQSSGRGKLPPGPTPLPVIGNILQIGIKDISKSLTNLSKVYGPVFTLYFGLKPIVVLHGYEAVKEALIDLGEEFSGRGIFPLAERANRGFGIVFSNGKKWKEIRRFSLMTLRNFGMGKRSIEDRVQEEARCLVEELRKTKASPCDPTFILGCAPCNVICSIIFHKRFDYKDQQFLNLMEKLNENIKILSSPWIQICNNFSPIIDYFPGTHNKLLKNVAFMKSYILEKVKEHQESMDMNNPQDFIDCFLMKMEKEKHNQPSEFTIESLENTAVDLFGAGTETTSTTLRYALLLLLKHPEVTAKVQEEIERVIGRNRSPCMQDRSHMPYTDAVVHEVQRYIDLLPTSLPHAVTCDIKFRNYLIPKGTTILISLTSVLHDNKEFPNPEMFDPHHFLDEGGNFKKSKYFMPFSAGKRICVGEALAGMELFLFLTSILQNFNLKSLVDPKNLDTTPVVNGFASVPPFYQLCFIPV

[13] = Kinetic solubility in water at pH 5.8; type: physicochemical; conditions: read-out: Kinetic_solubility
Cytochrome P450 3A4 = Cytochrome P450 3A4 (Homo sapiens, UniProt P08684); test: Inhibition of CYP3A4 in human liver microsomes using testosterone as substrate by HPLC-MS/MS method; type: ADME
Chain of Cytochrome P450 3A4 (P08684 whole entry): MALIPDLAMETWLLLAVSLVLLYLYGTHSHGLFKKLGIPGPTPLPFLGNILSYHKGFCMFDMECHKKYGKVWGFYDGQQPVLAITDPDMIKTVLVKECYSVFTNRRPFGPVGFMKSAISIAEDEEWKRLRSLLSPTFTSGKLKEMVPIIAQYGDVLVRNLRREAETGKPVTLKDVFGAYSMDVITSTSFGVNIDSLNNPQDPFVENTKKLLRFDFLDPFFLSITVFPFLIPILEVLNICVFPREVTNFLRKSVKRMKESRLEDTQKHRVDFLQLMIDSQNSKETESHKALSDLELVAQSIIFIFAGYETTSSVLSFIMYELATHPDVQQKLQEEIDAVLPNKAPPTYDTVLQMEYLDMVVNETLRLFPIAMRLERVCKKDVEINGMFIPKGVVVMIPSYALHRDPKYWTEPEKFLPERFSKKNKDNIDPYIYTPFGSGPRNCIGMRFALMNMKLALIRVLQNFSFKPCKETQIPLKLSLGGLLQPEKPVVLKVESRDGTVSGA

[14] = test system: Mycobacterium tuberculosis; type: functional; conditions: H37Rv, 168 h; remark: listed apart in the source
[15] = Kinetic solubility in PBS at pH 7.4; type: physicochemical; conditions: read-out: Kinetic_solubility
[16] = Half life in human liver S9 fraction at 2 uM by HPLC-MS/MS analysis; type: ADME, tissue-based
[17] = test system: Mycobacterium tuberculosis; test: Bactericidal activity against Mycobacterium tuberculosis H37Rv infected in mouse RAW264.7 cells assessed as bacterial colony formation at 5 uM after 5 days (reference value: 4.1 to 4.73 log10CU); type: functional
[18] = Thermodynamic solubility of the compound in acetate buffer at pH 4 after 24 hrs by HPLC method; type: physicochemical; conditions: read-out: Therm_solubility
[19] = Permeability of the compound at 1 uM […] by PAMPA; type: physicochemical; conditions: read-out: permeability
[20] = test system: Mycobacterium tuberculosis; test: Potency index, ratio of moxifloxacin MIC to test compound MIC for Mycobacterium tuberculosis PE-003 clinical isolate; type: functional
[21] = test system: Mycobacterium tuberculosis; type: functional; conditions: H37Rv, 168 h; remark: listed apart in the source
[22] = test system: Mycobacterium tuberculosis; test: microbe, parasite or virus in culture; conditions: PE-003, 168 h
Description: Antimycobacterial activity against Mycobacterium tuberculosis PE-003 clinical isolate after 7 days by resazurin reduction microplate assay

[23] = test system: Mycobacterium tuberculosis; type: functional; conditions: H37Rv, 168 h; remark: listed apart in the source
[24] = Cytotoxicity against human HepG2 cells assessed as viability at 10 uM after 72 hrs by MTT assay relative to control; type: cell-based; conditions: read-out: Activity
[25] = test system: Mycobacterium tuberculosis; type: functional; conditions: H37Rv, 168 h; remark: listed apart in the source

Chain of Cytochrome P450 2D6 (P10635 whole entry): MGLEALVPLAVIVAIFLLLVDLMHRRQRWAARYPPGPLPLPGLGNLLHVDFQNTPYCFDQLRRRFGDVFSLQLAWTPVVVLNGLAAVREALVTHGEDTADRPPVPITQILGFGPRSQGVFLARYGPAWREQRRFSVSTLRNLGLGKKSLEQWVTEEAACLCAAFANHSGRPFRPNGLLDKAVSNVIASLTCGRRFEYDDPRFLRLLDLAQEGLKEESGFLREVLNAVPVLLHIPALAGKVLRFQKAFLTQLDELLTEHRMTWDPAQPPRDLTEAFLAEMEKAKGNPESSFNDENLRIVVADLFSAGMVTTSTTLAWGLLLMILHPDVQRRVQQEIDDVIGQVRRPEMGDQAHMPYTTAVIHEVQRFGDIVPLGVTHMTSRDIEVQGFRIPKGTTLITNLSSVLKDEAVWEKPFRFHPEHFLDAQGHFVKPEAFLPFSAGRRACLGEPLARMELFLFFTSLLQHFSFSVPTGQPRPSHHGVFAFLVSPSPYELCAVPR

CCCCCc1ccc(NC(=O)COc2cc(C)nc3ccc(OC)cc23)cc1
IC50 (Cytochrome P450 2D6): > 30 µM
Ratio [1]: 2
solubility thermodynamic at 24 h [2]: 30 µM (≈ 11.8 µg/mL)
MIC [3]: 10 ng/mL (≈ 0.0255 µM)
viability at 72 h, 10 µM [4]: 86%
Ratio [5]: 292
MIC [6]: 1 ng/mL (≈ 0.00255 µM)
IC50 (Cytochrome P450 2C19): > 30 µM
viability at 72 h, 10 µM [7]: 110%
IC50 (Cytochrome P450 2E1): > 30 µM
MIC [8]: 0.005 to 0.01 µM (≈ 0.00196 to 0.00392 µg/mL)
IC50 (Cytochrome P450 1A2): > 30 µM
CLhep predicted at 2 µM [9]: 14.8 mL/min/kg
viability at 72 h, 10 µM [10]: 105%
MIC [11]: < 0.05 µM
viability at 72 h, 10 µM [12]: 97%
IC50 (Cytochrome P450 2C9): > 30 µM
solubility kinetic [13]: 2.6 µM (≈ 1.02 µg/mL)
IC50 (Cytochrome P450 3A4): > 30 µM
MIC [14]: 5 ng/mL (≈ 0.0127 µM)
solubility kinetic [15]: 4.7 µM (≈ 1.84 µg/mL)
half-life at 2 µM [16]: 19.4 min
Activity [17]: 3.23 log10CFU
solubility thermodynamic at 24 h [18]: 20 µM (≈ 7.85 µg/mL)
Papp at 1 µM [19]: 1.7 ×10⁻⁶ cm/s
Ratio [20]: 100
MIC [21]: 2.5 ng/mL (≈ 0.00637 µM)
MIC [22]: 0.001 µM (≈ 0.000392 µg/mL)
MIC [23]: 10 ng/mL (≈ 0.0255 µM)
viability at 72 h, 10 µM [24]: 83%
MIC [25]: 20 ng/mL (≈ 0.051 µM)
